Measured values: article PMC9867442, “Indole Derivatives Bearing Imidazole, Benzothiazole-2-Thione or Benzoxazole-2-Thione Moieties—Synthesis, Structure and Evaluation of Their Cytoprotective, Antioxidant, Antibacterial and Fungicidal Activities” (Molecules, 2023)

Key:
[1] = Ferrous ions (Fe2+) chelating activity (ferrozine); settings: 0.1 mg/mL, 10 min, room temperature
Experimental: Ferrous ions (Fe^2+) chelating activity was evaluated by inhibition of the formation of Fe^2+-ferrozine complex after incubation of the compounds tested with Fe^2+. The Fe^2+-chelating ability of compounds tested was determined by the absorbance of the ferrous ion-ferrozine complex at 562 nm. In brief, 0.1 mg/mL concentration of the compounds tested in 0.2 mL ethyl alcohol were added to a solution of 0.6 mM FeCl2 (0.05 mL). EDTA (ethylenediaminetetraacetic acid) was used as the standard EDTA chelating agent. The reaction was started by the addition of 5 mM ferrozine (0.05 mL) in ethyl alcohol and shaken vigorously immediately. The samples were stored for 10 min at room temperature (~22 °C). Following incubation, the absorbance (Abs) of the solutions was measured at 562 nm in a spectrophotometer. The percentage of inhibition of ferrozine—Fe^2+ complex formation was calculated using the equation: Fe^2+ chelating effect (%) = [1 − (Abs1/Abs0)] × 100% where Abs0 is the absorbance of the sample without the tested compound and Abs1 is the absorbance in the presence of the compound tested. Each sample was made in triplicate, and three independent experiments were performed.

Escherichia coli = experiment: Antibacterial well-diffusion method; assay type: cell-based; settings: 0.1 mL of compound in DMSO, 48 h, 37 °C
Experimental: (§1) The antimicrobial properties of compounds were determined against selected bacteria: Micrococcus luteus, Bacillus subtilis, Escherichia coli and Pseudomonas fluorescens which came from the collection of Pure Cultures of the Facility of Microbiology of the Department of Soil Science and Microbiology of the Poznan University of Life Sciences. The well-diffusion method was used to evaluate the antimicrobial properties of compounds. 6 mL each of liquidized broth medium was poured into sterile Petri dishes and allowed to solidify. After which, two sterile glass rings with a diameter of 0.5 cm were placed on the surface of each plate. Then 20 mL each of liquid broth medium containing suspensions of the tested bacterial strains at a density of 10^7 cells/cm3, obtained from 48-h cultures on broth […], was introduced. After the medium solidified, the glass rings were removed with a pencil, obtaining two wells on each plate. 0.1 mL of compound dissolved in pure dimethyl sulphoxide was introduced into one well, and 0.1 mL of pure dimethyl sulphoxide was introduced into the other well, which was as a control. Each compound was tested in four replicates. The plates were incubated for 48 h in a thermostat at 27 °C for M. luteus, B. subtilis and P. fluorescens cultures, and the E. coli culture at 37 °C. At the end of the incubation, the diameters of growth inhibition of the tested strains were measured using calipers.

Micrococcus luteus = experiment: Antibacterial well-diffusion method; assay type: cell-based; settings: Micrococus luteus, 0.1 mL of compound in DMSO, 48 h, 27 °C
Experimental: as §1

Pseudomonas fluorescens = experiment: Antibacterial well-diffusion method; assay type: cell-based; settings: 0.1 mL of compound in DMSO, 48 h, 27 °C
Experimental: as §1

Bacillus subtilis = experiment: Antibacterial well-diffusion method; assay type: cell-based; settings: 0.1 mL of compound in DMSO, 48 h, 27 °C
Experimental: as §1

Coniophora puteana (Cp) = experiment: Antifungal agar-plate method; assay type: cell-based; settings: Coniophora puteana, read-out: Antifungal activity (inhibition of mycelial growth); for inhibition of growth at 0.0001 %: concentration 0.0001%; for inhibition of growth at 0.001 %: concentration 0.001%; for inhibition of growth at 0.01 %: concentration 0.01%; for inhibition of growth at 0.1 %: concentration 0.1%
Experimental: (§2) Fungal strains: Coriolus versicolor (Cv), Poria placenta (Pp), Coniophora puteana (Cp) and Gloeophyllum trabeum (Gt) were used as a test organism for the experimental determination of the antifungal activity of 1–11. The fungus were obtained from the collection of the Department of Wood Chemical Technology, Faculty of Forestry and Wood Technology, Poznań, University of Life Sciences, Poland. The fungal growth rates were measured in 90 mm-diameter plastic dishes using the agar-plate method, described by Ważny and Thorton. Five concentrations of gramine and its derivatives in the range of 0.1% to 0.00001% were studied. The compound was applied on the agar (2% agar and 5% malt-extract) prepared on the Petri dish and previously autoclaved. The combination of the compound and fungus was repeated three times. Given sample was centrally inoculated with a 5 mm diameter disc taken from the submargin of 5-day-old malt agar plates. The plates were incubated in darkness at 21 ± 2 °C and 70 ± 5% relative air humidity. The growth duration was determined by the total coverage of the reference plate. The radius of the area covered by the fungus compared with the reference agar plate was employed to calculate the effective doses, ED50, of preservative concentrations retarding the fungal growth rate by 50%.

Poria placenta (Pp) = experiment: Antifungal agar-plate method; assay type: cell-based; settings: read-out: Antifungal activity (inhibition of mycelial growth); for inhibition of growth at 0.0001 %: concentration 0.0001%; for inhibition of growth at 0.001 %: concentration 0.001%; for inhibition of growth at 0.01 %: concentration 0.01%; for inhibition of growth at 0.1 %: concentration 0.1%
Experimental: as §2

Coriolus versicolor (Cv) = experiment: Antifungal agar-plate method; assay type: cell-based; settings: Trametes versicolor, read-out: Antifungal activity (inhibition of mycelial growth); for inhibition of growth at 0.0001 %: concentration 0.0001%; for inhibition of growth at 0.001 %: concentration 0.001%; for inhibition of growth at 0.01 %: concentration 0.01%; for inhibition of growth at 0.1 %: concentration 0.1%
Experimental: as §2

[2] = test system: Gloeophyllum trabeum (Gt); experiment: Antifungal agar-plate method; assay type: cell-based; settings: Gloeophyllum trabeum, read-out: Antifungal activity (inhibition of mycelial growth); for inhibition of growth at 0.0001 %: concentration 0.0001%; for inhibition of growth at 0.001 %: concentration 0.001%; for inhibition of growth at 0.01 %: concentration 0.01%; for inhibition of growth at 0.1 %: concentration 0.1%
Experimental: as §2

[3] = test system: human red blood cells (RBC); experiment: Hemolysis assay under the compounds tested; assay type: cell-based; settings: 0.1 mg/mL, 60 min, 37 °C, PBS pH 7.4
Experimental: The erythrocytes were washed three times (3000 rpm, 10 min, +4 °C) in 7.4 pH phosphate buffered saline (PBS: 137 mM NaCl, 2.7 mM KCl, 10 mM Na2HPO4, 1.76 mM KH2PO4) supplemented with 10 mM glucose. After washing, RBC were suspended in the PBS buffer at 1.65 × 10^9 cells/mL, stored at +4 °C, and used within 5 h.
The cytotoxic activity of the compounds tested was determined by a standard hemolytic assay according to Mrówczyńska and Hägerstrand [57]. Briefly, RBC (1.65 × 10^8 cells/mL, ~1.5% hematocrit) were incubated in PBS buffer (7.4 pH) supplemented with 10 mM glucose and containing compounds tested (0.1 mg/mL) for 60 min at 37 °C in a shaking water bath. Samples with RBC incubated in PBS without compounds tested were taken as the control. Each sample was repeated three times, and the experiments were repeated 3 times with RBC from different donors. After incubation, the RBC suspensions were centrifuged (3000 rpm, 10 min), and the degree of hemolysis was estimated by measuring the absorbance (Ab) of the supernatant at 540 nm. The results were expressed as a percentage (%) of hemolysis which was determined using the following equation:Hemolysis (%) = (sample Ab/positive control Ab) × 100% were positive control is Ab of supernatant of RBC in ice-cold H2O.

| melting point | SMILES | Zone of Growth Inhibition (Escherichia coli) | Zone of Growth Inhibition (Micrococcus luteus) | Zone of Growth Inhibition (Pseudomonas fluorescens) | Zone of Growth Inhibition (Bacillus subtilis) | inhibition of growth at 0.0001 % (Coniophora puteana (Cp)) | inhibition of growth at 0.001 % (Coniophora puteana (Cp)) | inhibition of growth at 0.01 % (Coniophora puteana (Cp)) | inhibition of growth at 0.1 % (Coniophora puteana (Cp)) | inhibition of growth at 0.0001 % (Poria placenta (Pp)) | inhibition of growth at 0.001 % (Poria placenta (Pp)) | inhibition of growth at 0.01 % (Poria placenta (Pp)) | inhibition of growth at 0.1 % (Poria placenta (Pp)) | inhibition of growth at 0.0001 % (Coriolus versicolor (Cv)) | inhibition of growth at 0.001 % (Coriolus versicolor (Cv)) | inhibition of growth at 0.01 % (Coriolus versicolor (Cv)) | inhibition of growth at 0.1 % (Coriolus versicolor (Cv)) | inhibition of growth at 0.0001 % [2] | inhibition of growth at 0.001 % [2] | inhibition of growth at 0.01 % [2] | other results |
| --- | --- | --- | --- | --- | --- | --- | --- | --- | --- | --- | --- | --- | --- | --- | --- | --- | --- | --- | --- | --- | --- |
| 187 to 190 °C | S=c1sc2ccccc2n1Cc1c[nH]c2ccccc12 [Compound 10, 3-((1H-indol-3-yl)methyl)benzo[d]thiazole-2(3H)-thione] | 1 mm | 2.6 mm | 0 mm | 0 mm | 0% | 40% | 57% | 100% | 34% | 54% | 71% | 100% | 0% | 20% | 49% | 100% | 0% | 38% | 59% | Chelating activity [1]: 12%; inhibition of growth at 0.1 % [2]: 100% |
| 173 to 174 °C | Cc1nccn1Cc1c[nH]c2ccccc12 [Compound 3, 3-((2-methyl-1H-imidazol-1-yl)methyl)-1H-indole] | 1 mm | 3 mm | 16 mm | 1 mm | 0% | 0% | 48% | 100% | 0% | 0% | 48% | 100% | 0% | 1% | 35% | 100% | 15% | 19% | 44% | Hemolytic activity [3]: 3.6%; inhibition of growth at 0.1 % [2]: 100% |
| 157 to 159 °C | S=c1oc2ccccc2n1Cc1c[nH]c2ccccc12 [Compound 11, 3-((1H-indol-3-yl)methyl)benzo[d]oxazole-2(3H)-thione] | 2.7 mm | 4 mm | 0 mm | 0 mm | 0% | 43% | 44% | 100% | 0% | 56% | 64% | 100% | 0% | 2% | 26% | 100% | 17% | 39% | 47% | Chelating activity [1]: 29%; inhibition of growth at 0.1 % [2]: 100% |
| 214 to 216 °C | c1ccc2c(c1)ncn2Cc1c[nH]c2ccccc12 [Compound 9, 1-((1H-indol-3-yl)methyl)-1H-benzo[d]imidazole] | 3 mm | 4.3 mm | 0 mm | 2.7 mm | 0% | 0% | 40% | 100% | 0% | 23% | 37% | 100% | 0% | 6% | 44% | 100% | 17% | 28% | 48% | Hemolytic activity [3]: 23%; Chelating activity [1]: 4%; inhibition of growth at 0.1 % [2]: 100% |
